≈ marks a conversion by molar mass, not a printed value.
What was measured:
[1] = Solubility in phosphate buffer (pH 7.4); type: physicochemical; settings: aqueous buffer, thermodynamic from solid; phosphate buffer pH 7.4, agitated 20 hours at 37° C.
Procedure: The solubilities of 1-(5,8-Dichloro-6,7-dihydroxy-3,4-dihydroisoquinolin-2(1H)-yl)-2-(6-(trifluoromethyl)pyridin-3-ylthio)ethenone (example 1) and the known compound 1-(5,8-Dichloro-6,7-dihydroxy-3,4-dihydroisoquinolin-2(1H)-yl)-2-(6-(trifluoromethyl)pyridine-3-yloxy)ethanone in phosphate buffer (pH 7.4) were determined.
Briefly, 1 mg of the study compounds were weighted into glass vials (two replicates). 2 ml of pH 7.4 phosphate buffer was added into the vials and vials were then agitated (1300 rpm) 20 hours at 37° C. Samples were filtrated using 0.45 μm PVDA syringe filters before analysis. 10 μg/ml and 500 μg/ml standard solutions in acetonitrile:ultra-pure water were prepared using 10 mM DMSO-stock solution. Samples and standards were analyzed from glass vials. The samples were analyzed using UPLC/PDA immediately after preparation. A Waters Acquity ultra high-performance liquid chromatographic (UPLC) system with autosampler, vacuum degasser, photo-diode-array detector (Acquity PDA) and column oven was used.

male Sprague Dawley rats = assay: Carbamylcholine-induced bronchospasm in anaesthetised rats (Konzett-Rossler method); type: in vivo; settings: rat; for Bronchodilatating effect on carbamylcholine chloride induced bronchoconstriction: intra-tracheal, administered at 6 mM, smaller increase in pulmonary resistance compared to vehicle; for Total pulmonary resistance increase from baseline post carbamylcholine chloride challenge, Average: single intra-tracheal nebulization of 100 μl at 6 mM, 30 min before carbamylcholine chloride 275 μg/kg iv
Procedure: The bronchocondilatator effect of example 1 and (2E)-1-(5,8-dichloro-3,4-dihydro-6,7-dihydroxy-2(1H)-isoquinolinyl)-3-[6-(trifluoromethyl)-3-pyridinyl]-2-propen-1-one was evaluated using the Konzett-Rossler method (cf. Konzett H, Rössler R (1940) Versuchsanordung zu Untersuchungen an der Bronchialmuskulatur. Naunyn-Schmiedeberg's Arch Exp Path Pharmakol 192:71-74) in the anaesthetised rat following single intra-tracheal administration.
The study involved male Sprague Dawley rats, weighing between 291.1 g and 347.7 g on the day of the test.
Animals were put on to a water-only fast the day prior to the test. On the day of the test, animals were anaesthetised using sodium pentobarbital at a dose of 60 mg/kg by intraperitoneal route in a volume of 1 mL/kg, then at 2 mg/mL by the intravenous route at a rate of 10 mL/kg/hour throughout the test. The trachea was quickly cannulated to enable artificial respiration. The animals were ventilated with an air flow of approximately 1 mL per 100 g at a rate of 54 cycles/minute. Total pulmonary resistance was measured continuously using a pressure transducer, fitted to a side branch of the tracheal cannula. Arterial blood pressure and heart rate were obtained by placing the telemetric pressure sensor of telemetric transmitter HD-S11 in the carotid artery. A jugular vein was cannulated for the intravenous administration of carbamylcholine chloride. The temperature of the animal was kept between 36.0° C. and 39.3° C. using an electric blanket. At the end of the surgical phase, animals were pre-medicated with a solution of pancuronium bromide at 0.2 mg/mL by the intravenous route at a rate of 10 mL/kg/hour throughout the test to avoid spontaneous respiration. Ventilatory flow was adjusted in such way as to obtain a baseline stabilisation of the pulmonary pressure resistance between 6.5 to 10.5 mmHg (i.e. approximately between 10 to 15% of maximum pulmonary resistance). About 15 minutes after the end of the surgical phase and stabilisation of the pulmonary pressure signal, the animals were dosed with: • 1. Example 1; • 2. (2E)-1-(5,8-dichloro-3,4-dihydro-6,7-dihydroxy-2(1H)-isoquinolinyl)-3-[6-(trifluoromethyl)-3-pyridinyl]-2-propen-1-one; or • 3. Their vehicle
by intra-tracheal nebulization in a volume of 100 μl using a Microsprayer aerosolizer (Penncentury).
Thirty minutes later, carbamylcholine chloride at 275 μg/kg was administered using an infusion pump in a volume of 3.33 mL/kg over a 5-minute period. Total pulmonary resistance, mean, systolic and diastolic arterial blood pressure and heart rate were continuously recorded over the test.
Example 1 was formulated by dissolving 5.5 mg in 2015 μl vehicle (200 mM (2-hydroxypropyl)-β-cyclodextrin, 49 mM L-lysine, 6.2 mM L-ascorbic acid in MilliQ water). […]

[2] = tested on: human peripheral blood mononuclear cell (PBMC); assay: Human PBMC in vitro model, LPS induced MCP-1 and LTB-4 levels; type: cell-based; settings: for LTB-4 reduction (%) / MCP-1 reduction (%): LPS 0.1 μg/ml, 24 h
Procedure: Cryopreserved PBMC's (SeraCare, #72001) are thawed, washed with culture media (RPMI-1640 from Invitrogen, #61870-036+10% heat inactivated fetal bovine serum from Invitrogen, #10082-147+100 U/ml penicillin+100 μg/ml streptomycin) and tested for viability using Trypan blue (PBMC viability=96%). Cells are then resuspended to 1×10^6 cells/ml in culture media and 0.5 ml plated into 24 well culture plates (5×10^5 cells/well) before incubation for 30 minutes at 37° C. with 5% C02 prior to addition of a compound to be assessed (10 μM) or dexamethasone (1 μM). One hour thereafter, LPS (0.1 μg/ml, Salmonella abortus equi, Sigma, #L1887) are added and the cells are incubated for another 24 h before collection of the cell culture supernatants, which are assayed for the presence of MCP-1 and LTB4.
MCP-1 levels are quantified employing a Luminex-based assay according the manufacturer's instructions. Data are collected using a Luminex 100 (Luminex Corporation, Austin, Tex.). Standard curves are generated using a 5-parameter logistic curve fitting equation weighted by 1/y (StarStation V 2.0; Applied Cytometry Systems, Sacramento, Calif.). Each sample reading are interpolated from the appropriate standard curve. Calculated concentrations are multiplied by the appropriate dilution factor when necessary.
LTB4 levels are quantified by ELISA following the manufacturer's instructions. Absorbance readings are detected using a ThermoMax microplate reader (Molecular Devices). Standard curves are generated using a 4-parameter logistic curve fitting equation (SoftMax Pro 4.7.1; Molecular Devices). Each sample reading are interpolated from the appropriate standard curve. Duplicate interpolated sample values are averaged and standard deviations are calculated. Calculated concentrations are multiplied by the appropriate dilution factor.
The reults in lowering MCP-1 and LTB-4 levels compared to vehicle (negative control) and 1 μM dexamethasone (positive control) are given below.

human bronchiols = assay: Leukotriene D4 induced contraction of human bronchus preparations, in vitro model; settings: pre-treatment with compound at 10 μM; Leukotriene D4 (10 nM) induced contraction of human bronchiols
Procedure: (§1) The usefulness of the compounds, as defined in the preceding embodiments, in treating, pretreating, revoking, mitigating, alleviating and/or preventing a condition of the respiratory apparatus characterized by bronchoconstriction, were evaluated in a complex and relevant in vitro model. The in vitro model was in accordance with the in vitro model disclosed in US 2006-0040254 A1 and Skogvall, S., Berglund, M., Dalence-Guzmán, M. F., Svensson, K., Jönsson, P., Persson, C. G. A and Sterner, O., Pulmonary Pharmacology and Therapeutics, vol 20:3, 2007, p. 273-280. All references disclosed herein are hereby incorporated in their entirety by reference.
In short, lung tissue was obtained from patients undergoing lobectomia or pulmectomia due to lung carcinoma. From the bronchus of this tissue were rectangular oblong preparations obtained. The contraction induced by inflammatory mediators, such as Leukotriene D4, histamine, prostaglandin D2 or acetylcholine, in the presence and absence of the compound to be evaluated, were compared.
as §1, with “embodiments herein,” for “preceding embodiments,”, “treating,” for “treating, pretreating,”, “model, which is described” for “model. The in vitro model was in accordance with the in vitro model disclosed”
The remaining contraction, after pre-treatment with various compound examples at a concentration of 10 μM, of human bronchiols after Leukotriene D4 (10 nM) induced contraction according to the in vitro method described herein above are tabulated below.

[3] = dexamethasone 1 μM (positive control)
[4] = compound 10 μM, compared to vehicle

Q: Which solubility at 20 h [1] does the source give for `O=C(COc1ccc(C(F)(F)F)nc1)N1CCc2c(Cl)c(O)c(O)c(Cl)c2C1` [1-(5,8-Dichloro-6,7-dihydroxy-3,4-dihydroisoquinolin-2(1H)-yl)-2-(6-(trifluoromethyl)pyridine-3-yloxy)ethanone, reference compound] here?
A: 76.7 µg/mL (≈ 175 µM)

Q: For `O=C(/C=C/c1ccc(C(F)(F)F)nc1)N1CCc2c(Cl)c(O)c(O)c(Cl)c2C1` [(2E)-1-(5,8-dichloro-3,4-dihydro-6,7-dihydroxy-2(1H)-isoquinolinyl)-3-[6-(trifluoromethyl)-3-pyridinyl]-2-propen-1-one, reference compound], which “Bronchodilatating effect on carbamylcholine chloride induced bronchoconstriction” value (male Sprague Dawley rats) is on record?
A: had a bronchodilatating effect

Q: What about the “Total pulmonary resistance increase from baseline post carbamylcholine chloride challenge, Average” value (male Sprague Dawley rats) of the same compound?
A: 2.86 mmHg

Q: Which “LTB-4 reduction (%)” value [2, 3] does the source give for `C[C@@H]1C[C@H]2[C@@H]3CCC4=CC(=O)C=C[C@]4(C)[C@@]3(F)[C@@H](O)C[C@]2(C)[C@@]1(O)C(=O)CO` [Dexamethasone, dexamethasone, reference compound] here?
A: 23.4%

Q: What about the “MCP-1 reduction (%)” value [2, 3] of the same compound?
A: 15.5%

Q: Which “Reduction of inflammatory markers (MCP-1 and LTB-4)” value ([2]; 10 μM, LPS stimulated PBMC) does the source give for `O=C(CSc1ccc(C(F)(F)F)nc1)N1CCc2c(Cl)c(O)c(O)c(Cl)c2C1` [Example 1, 1-(5,8-Dichloro-6,7-dihydroxy-3,4-dihydroisoquinolin-2(1H)-yl)-2-(6-(trifluoromethyl)pyridin-3-ylthio)ethanone] here?
A: significant reduction

Q: And the “LTB-4 reduction (%)” value [2, 4]?
A: 20.7%

Q: What about the “MCP-1 reduction (%)” value [2, 4] of the same compound?
A: 70.8%

Q: What about the solubility at 20 h [1] of the same compound?
A: 16.6 µg/mL (≈ 36.6 µM)

Q: And the “Bronchodilatating effect on carbamylcholine chloride induced bronchoconstriction” value (male Sprague Dawley rats)?
A: had a bronchodilatating effect

Q: And the “Total pulmonary resistance increase from baseline post carbamylcholine chloride challenge, Average” value (male Sprague Dawley rats)?
A: 2.33 mmHg

Q: What about the “Remaining contraction (%)” value (human bronchiols) of the same compound?
A: 7%

Q: For `Cc1nc(C(F)(F)F)ccc1SCC(=O)N1CCc2c(Cl)c(O)c(O)c(Cl)c2C1` [Example 2, 1-(5,8-Dichloro-6,7-dihydroxy-3,4-dihydroisoquinolin-2(1H)-yl)-2-(2-methyl-6-(trifluoromethyl)pyridin-3-ylthio)ethanone], which “Remaining contraction (%)” value (human bronchiols) is on record?
A: 14%

Q: With `Cc1cc(C(F)(F)F)cc(SCC(=O)N2CCc3c(Cl)c(O)c(O)c(Cl)c3C2)n1` [Example 3, 1-(5,8-Dichloro-6,7-dihydroxy-3,4-dihydroisoquinolin-2(1H)-yl)-2-(6-methyl-4-(trifluoromethyl)pyridin-2-ylthio)ethanone] as the compound, how does the “Remaining contraction (%)” value (human bronchiols) read?
A: 16%

Q: For `O=C(C1CCCN(c2ccc(F)cn2)C1)N1CCc2c(Cl)c(O)c(O)c(Cl)c2C1` (stereo not drawn) [Example 4, (5,8-Dichloro-6,7-dihydroxy-3,4-dihydroisoquinolin-2(1H)-yl)(1-(5-fluoropyridin-2-yl)piperidin-3-yl)methanone], which “Remaining contraction (%)” value (human bronchiols) is on record?
A: 51%

— patent publication US11680054B2, “Bronchodilating hetero-linked amides” (Arcede Pharma AB, priority 2018, dated 2023)
